Reference: US5654290A, “Polyunsaturated fatty acid based drugs” (Institut National de la Sante et de la Recherche Medicale, priority 1992, dated 1997)

Experiments:
[1] = test system: platelets; conditions: cited from earlier work
[2] = test system: platelets; conditions: concentrations which do not bring the TXA2/PGH2 receptor into play; cited from earlier work
[3] = test system: platelets; conditions: concentrations which do not bring the TXA2/PGH2 receptor into play; cited from earlier work; remark: listed apart in the source
[4] = test system: TXA2 /PGH2 receptor; conditions: whole platelets or solubilized platelet membranes; cited from earlier work
[5] = test system: alpha2 -adrenergic receptor; conditions: platelet membranes; cited from earlier work
[6] = test system: TXA2 /PGH2 receptor; conditions: cited from earlier work
[7] = test system: liver; assay: Capture by the liver, in rats, of lyso-PCDHA and non-esterified DHA; type: in vivo; conditions: 20-day-old rat, intravenous; lyso-PCDHA vs non-esterified DHA
Text: (§1) FIG. 3 represents the variation of the radio-activity recovered in the total lipids: A from the brain, B from the kidney, C from the heart and D from the liver, after injecting tritiated DHA in free form (black circle) or in the form of 2-DHA-1-lyso-PC (black triangle).
(§2) The animal studied is a 20-day-old rat in which the cerebral lipid metabolism is at its peak.
(§3) The lyso-PC's are labelled on the fatty acid and the choline, attached to albumin and administered intravenously (50). […] It therefore appears that the lyso-PCDHA's attached to albumin constitute a particularly preferred form of supply of DHA to the developing brain.

[8] = test system: heart; assay: Capture by the heart, in rats, of lyso-PCDHA and non-esterified DHA; type: in vivo; conditions: 20-day-old rat, intravenous; lyso-PCDHA vs non-esterified DHA
Text: as §1, §2, §3

[9] = test system: brain; assay: Distribution of the radioactivity between the lipid classes of the brain after intravenous injection of lyso-PCDHA or non-esterified DHA; type: in vivo, rat; conditions: for radioactivity in OTHERS of the brain / radioactivity in AG of the brain / radioactivity in DG of the brain / radioactivity in LN of the brain / radioactivity in Lyso-PC of the brain / radioactivity in MG of the brain / radioactivity in PC of the brain / radioactivity in PE of the brain / radioactivity in PS of the brain / radioactivity in Pi of the brain / radioactivity in TG of the brain: injection of Lyso-PCDHA
Text: as §2, §3

[10] = test system: brain; assay: Capture by the brain, in rats, of lyso-PC's; type: in vivo; conditions: 20-day-old rat, intravenous, attached to albumin; compared with lyso-PC's comprising 18:1, 18:2 and 20:4
Text: as §1, §2, §3

[11] = test system: kidney; assay: Capture by the kidney, in rats, of lyso-PCDHA and non-esterified DHA; type: in vivo; conditions: 20-day-old rat, intravenous; lyso-PCDHA vs non-esterified DHA
Text: as §1, §2, §3

[12] = incorporation in vitro into the platelet lipid reserves, by means of albumin

CC/C=C\C/C=C\C/C=C\C/C=C\C/C=C\CCCC(=O)O [20:5n-3, eicosapentanoic acid]
aggregability of the platelets in response to U 46.619 [1, 12]: loss of aggregability of the platelets in response to U 46.619
inhibition of platelet aggregation induced by U 46.619 ([1]; non-esterified fatty acid): competitively inhibit platelet aggregation induced by U 46.619
effect on platelet aggregation induced by ionophore A 23187 [2]: none of these fatty acids affects the platelet aggregation
effect on platelet aggregation induced by thrombin [3]: none of these fatty acids affects the platelet aggregation
alteration of the TXA2 /PGH2 receptor [4]: specifically alter the TXA2 /PGH2 receptor
effect on binding of yohimbine to alpha2-adrenergic receptor [5]: do not modify binding of yohimbine
affinity of U 46.619 for its receptor [6, 12]: decrease in the affinity of the agonist for its receptor
inhibition of specific binding of U 46.619 to washed platelets ([6]; non-esterified fatty acid): competitively inhibit

CC/C=C\C/C=C\C/C=C\C/C=C\C/C=C\C/C=C\CCC(=O)OC(CO)COP(=O)([O-])OCC[N+](C)(C)C (stereo not shown) [lyso-PCDHA, 1-lyso-2-DHA-glycerophosphocholine]
capture by the liver [7]: do not capture the lyso-PCDHA's as effectively as the non-esterified DHA
capture by the heart [8]: do not capture the lyso-PCDHA's as effectively as the non-esterified DHA
esterification in the phosphatidylethanolamines ([9]; brain, rat, after injection): very rapidly, a differential esterification is produced in the phosphatidylethanolamines
reacylation of DHA in the phosphatidylcholines ([9]; brain, rat, first stages after the injection): low and is visible only in the first stages after the injection
radioactivity in OTHERS of the brain [9]: 3.7 % of the radioactivity of the total lipids
radioactivity in AG of the brain ([9]; 2.5 min): 15.3 % of the radioactivity of the total lipids
radioactivity in DG of the brain ([9]; 2.5 min): 10.8 % of the radioactivity of the total lipids
radioactivity in LN of the brain ([9]; 2.5 min): 29.3 % of the radioactivity of the total lipids
radioactivity in Lyso-PC of the brain ([9]; 2.5 min): 4.1 % of the radioactivity of the total lipids
radioactivity in MG of the brain ([9]; 2.5 min): 2.2 % of the radioactivity of the total lipids
radioactivity in PC of the brain ([9]; 2.5 min): 25.6 % of the radioactivity of the total lipids
radioactivity in PE of the brain ([9]; 2.5 min): 28.2 % of the radioactivity of the total lipids
radioactivity in PS of the brain ([9]; 2.5 min): 3.9 % of the radioactivity of the total lipids
radioactivity in Pi of the brain ([9]; 2.5 min): 8.9 % of the radioactivity of the total lipids
radioactivity in TG of the brain ([9]; 2.5 min): 1.0 % of the radioactivity of the total lipids
radioactivity in AG of the brain ([9]; 5 min): 21.2 % of the radioactivity of the total lipids
radioactivity in DG of the brain ([9]; 5 min): 9.3 % of the radioactivity of the total lipids
radioactivity in LN of the brain ([9]; 5 min): 35.3 % of the radioactivity of the total lipids
radioactivity in Lyso-PC of the brain ([9]; 5 min): 0.4 % of the radioactivity of the total lipids
radioactivity in MG of the brain ([9]; 5 min): 2.3 % of the radioactivity of the total lipids
radioactivity in OTHERS of the brain ([9]; 5 min): 11.4 % of the radioactivity of the total lipids
radioactivity in PC of the brain ([9]; 5 min): 17.8 % of the radioactivity of the total lipids
radioactivity in PE of the brain ([9]; 5 min): 26.3 % of the radioactivity of the total lipids
radioactivity in PS of the brain ([9]; 5 min): 5.3 % of the radioactivity of the total lipids
radioactivity in Pi of the brain ([9]; 5 min): 3.4 % of the radioactivity of the total lipids
radioactivity in TG of the brain ([9]; 5 min): 2.5 % of the radioactivity of the total lipids
radioactivity in AG of the brain ([9]; 6.5 min): 17.2 % of the radioactivity of the total lipids
radioactivity in DG of the brain ([9]; 6.5 min): 9.4 % of the radioactivity of the total lipids
radioactivity in LN of the brain ([9]; 6.5 min): 31.6 % of the radioactivity of the total lipids
radioactivity in Lyso-PC of the brain ([9]; 6.5 min): 1.2 % of the radioactivity of the total lipids
radioactivity in MG of the brain ([9]; 6.5 min): 2.7 % of the radioactivity of the total lipids
radioactivity in PC of the brain ([9]; 6.5 min): 26.2 % of the radioactivity of the total lipids
radioactivity in PE of the brain ([9]; 6.5 min): 28.1 % of the radioactivity of the total lipids
radioactivity in PS of the brain ([9]; 6.5 min): 5.3 % of the radioactivity of the total lipids
radioactivity in Pi of the brain ([9]; 6.5 min): 3.7 % of the radioactivity of the total lipids
radioactivity in TG of the brain ([9]; 6.5 min): 2.3 % of the radioactivity of the total lipids
radioactivity in AG of the brain ([9]; 15 min): 13.9 % of the radioactivity of the total lipids
radioactivity in DG of the brain ([9]; 15 min): 5.8 % of the radioactivity of the total lipids
radioactivity in LN of the brain ([9]; 15 min): 23.7 % of the radioactivity of the total lipids
radioactivity in Lyso-PC of the brain ([9]; 15 min): 0.2 % of the radioactivity of the total lipids
radioactivity in MG of the brain ([9]; 15 min): 1.8 % of the radioactivity of the total lipids
radioactivity in OTHERS of the brain ([9]; 15 min): 2.6 % of the radioactivity of the total lipids
radioactivity in PC of the brain ([9]; 15 min): 26.8 % of the radioactivity of the total lipids
radioactivity in PE of the brain ([9]; 15 min): 38.9 % of the radioactivity of the total lipids
radioactivity in PS of the brain ([9]; 15 min): 4.6 % of the radioactivity of the total lipids
radioactivity in Pi of the brain ([9]; 15 min): 3.2 % of the radioactivity of the total lipids
radioactivity in TG of the brain ([9]; 15 min): 2.3 % of the radioactivity of the total lipids
radioactivity in AG of the brain ([9]; 30 min): 11 % of the radioactivity of the total lipids
radioactivity in DG of the brain ([9]; 30 min): 4 % of the radioactivity of the total lipids
radioactivity in LN of the brain ([9]; 30 min): 17.8 % of the radioactivity of the total lipids
radioactivity in Lyso-PC of the brain ([9]; 30 min): 0 % of the radioactivity of the total lipids
radioactivity in MG of the brain ([9]; 30 min): 0.7 % of the radioactivity of the total lipids
radioactivity in OTHERS of the brain ([9]; 30 min): 3.8 % of the radioactivity of the total lipids
radioactivity in PC of the brain ([9]; 30 min): 24.1 % of the radioactivity of the total lipids
radioactivity in PE of the brain ([9]; 30 min): 46.4 % of the radioactivity of the total lipids
radioactivity in PS of the brain ([9]; 30 min): 5.0 % of the radioactivity of the total lipids
radioactivity in Pi of the brain ([9]; 30 min): 2.6 % of the radioactivity of the total lipids
radioactivity in TG of the brain ([9]; 30 min): 2.1 % of the radioactivity of the total lipids
radioactivity in AG of the brain ([9]; 60 min): 10.0 % of the radioactivity of the total lipids
radioactivity in DG of the brain ([9]; 60 min): 2.6 % of the radioactivity of the total lipids
radioactivity in LN of the brain ([9]; 60 min): 16.7 % of the radioactivity of the total lipids
radioactivity in Lyso-PC of the brain ([9]; 60 min): 0 % of the radioactivity of the total lipids
radioactivity in MG of the brain ([9]; 60 min): 0.4 % of the radioactivity of the total lipids
radioactivity in OTHERS of the brain ([9]; 60 min): 5.3 % of the radioactivity of the total lipids
radioactivity in PC of the brain ([9]; 60 min): 24.9 % of the radioactivity of the total lipids
radioactivity in PE of the brain ([9]; 60 min): 49.2 % of the radioactivity of the total lipids
radioactivity in PS of the brain ([9]; 60 min): 3.9 % of the radioactivity of the total lipids
radioactivity in Pi of the brain ([9]; 60 min): 2.6 % of the radioactivity of the total lipids
radioactivity in TG of the brain ([9]; 60 min): 1.4 % of the radioactivity of the total lipids
capture by the brain [10]: particularly well captured by the brain
capture by the kidney [11]: captures the two forms of supply in essentially the same manner
